Data: US9187472B2 (AbbVie Inc., priority 2012, dated 2015)

Assays:
[1] = molecular target: NAMPT (Homo sapiens, UniProt P43490); assay: TR-FRET Binding Assay of NAMPT with PRPP; details: with 200 μM PRPP and 2.5 mM ATP; 2 nM NAMPT, 2 nM probe, 16 hours equilibration
Procedure, shortened: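 NAMPT 2 nM + probe 2 nM + Tb-anti-His Ab 1 nM; PRPP 200 μM, ATP 2.5 mM, DMSO 2%; 16 h equilibration before TR-FRET read.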

[2] = molecular target: NAMPT (human, recombinant, C-terminally His-tagged) (Homo sapiens, UniProt P43490); assay: Time-Resolved Fluorescence Resonance Energy Transfer (TR-FRET) Binding Assay of NAMPT; details: without substrates; 6.8 nM NAMPT, 200 nM probe, 3 hours equilibration
Procedure, shortened: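 Read-out is the time-resolved FRET ratio Em520/Em495 (excitation 337 nm) between a terbium anti-His antibody (1 nM) on the enzyme and an Oregon Green 488-labelled nicotinamide-competitive inhibitor probe (200 nM). Enzyme was 6.8 nM, DMSO 2%, pH 7.5 HEPES buffer; 3 h room-temperature equilibration preceded reading.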

[3] = tested on: PC3 cells; assay: NAMPT Cell Proliferation Assay; format: cell-based; details: Homo sapiens, PC-3, 120 h, 5 days incubation, cell viability by Cell Titer Glo
Procedure, shortened: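 Cell Titer Glo viability after 5-day exposure (37° C, 5% CO2); PC3, 500 cells/well, RPMI + 10% heat-inactivated FBS, overnight attachment before dosing. Dose range 10 μM to 1×10^−5 μM, 10-fold steps. IC50 = sigmoidal fit of % inhibition.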

Chain of NAMPT (P43490 whole entry): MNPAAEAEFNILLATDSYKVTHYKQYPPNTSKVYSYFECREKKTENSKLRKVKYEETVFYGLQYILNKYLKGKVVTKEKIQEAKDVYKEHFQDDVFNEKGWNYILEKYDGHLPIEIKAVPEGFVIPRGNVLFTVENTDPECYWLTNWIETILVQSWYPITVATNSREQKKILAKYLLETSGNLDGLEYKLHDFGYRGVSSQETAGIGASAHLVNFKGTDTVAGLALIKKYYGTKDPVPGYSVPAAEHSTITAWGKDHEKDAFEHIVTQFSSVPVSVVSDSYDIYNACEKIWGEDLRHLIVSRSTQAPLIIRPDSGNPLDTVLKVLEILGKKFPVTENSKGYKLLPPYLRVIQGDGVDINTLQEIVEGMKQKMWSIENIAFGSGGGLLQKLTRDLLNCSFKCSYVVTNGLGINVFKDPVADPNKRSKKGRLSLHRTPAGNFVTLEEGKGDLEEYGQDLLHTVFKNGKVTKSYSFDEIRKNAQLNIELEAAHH
Chain of NAMPT (human, recombinant, C-terminally His-tagged) (P43490 whole entry): as above

Structure (SMILES)	IC50 [1] [nM]	IC50 [2] [nM]	IC50 [3] [nM]
CC(C)Cn1cc(-c2ccc(C(=O)NCc3ccn4ccnc4c3)o2)cn1 [Example 740, N-(imidazo[1,2-a]pyridin-7-ylmethyl)-5-[1-(2-methylpropyl)-1H-pyrazol-4-yl]furan-2-carboxamide]	0.403	70.1	8.13
O=C(NCc1ccn2ccnc2c1)c1ccc(-c2cnn(Cc3ccccc3)c2)o1 [Example 741, 5-(1-benzyl-1H-pyrazol-4-yl)-N-(imidazo[1,2-a]pyridin-7-ylmethyl)furan-2-carboxamide]	0.647	68	74.9
O=C(NCc1ccn2ccnc2c1)c1ccc(-c2cnn(C[C@@H]3CCCO3)c2)o1 [Example 742, N-(imidazo[1,2-a]pyridin-7-ylmethyl)-5-{1-[(2S)-tetrahydrofuran-2-ylmethyl]-1H-pyrazol-4-yl}furan-2-carboxamide]	0.526	241	10.5
O=C(NCc1ccn2ccnc2c1)c1ccc(-c2cnn(C[C@H]3CCCO3)c2)o1 [Example 743, N-(imidazo[1,2-a]pyridin-7-ylmethyl)-5-{1-[(2R)-tetrahydrofuran-2-ylmethyl]-1H-pyrazol-4-yl}furan-2-carboxamide]	0.691	63.3	6.81
CC(C)C(=O)N1CC=C(c2ccc(C(=O)NCc3ccn4ccnc4c3)o2)CC1 [Example 744, N-(imidazo[1,2-a]pyridin-7-ylmethyl)-5-[1-(2-methylpropanoyl)-1,2,3,6-tetrahydropyridin-4-yl]furan-2-carboxamide]	0.806	1080	505
CC(C)CC(=O)N1CC=C(c2ccc(C(=O)NCc3ccn4ccnc4c3)o2)CC1 [Example 745, N-(imidazo[1,2-a]pyridin-7-ylmethyl)-5-[1-(3-methylbutanoyl)-1,2,3,6-tetrahydropyridin-4-yl]furan-2-carboxamide]	0.783	994	632
O=C(NCc1ccn2ccnc2c1)c1ccc(C2=CCN(C(=O)c3ccccc3)CC2)o1 [Example 746, 5-(1-benzoyl-1,2,3,6-tetrahydropyridin-4-yl)-N-(imidazo[1,2-a]pyridin-7-ylmethyl)furan-2-carboxamide]	0.839	795	116
CC(C)Cc1ccc(-c2ccc(C(=O)NCc3ccn4ccnc4c3)o2)cc1 [Example 747, N-(imidazo[1,2-a]pyridin-7-ylmethyl)-5-[4-(2-methylpropyl)phenyl]furan-2-carboxamide]	1.75	435	942
CC[C@H](C)C(=O)N1CC=C(c2ccc(C(=O)NCc3ccn4ccnc4c3)o2)CC1 [Example 748, N-(imidazo[1,2-a]pyridin-7-ylmethyl)-5-{1-[(2S)-2-methylbutanoyl]-1,2,3,6-tetrahydropyridin-4-yl}furan-2-carboxamide]	0.648	558	50.7
CC(C)(C)CC(=O)N1CC=C(c2ccc(C(=O)NCc3ccn4ccnc4c3)o2)CC1 [Example 749, 5-[1-(3,3-dimethylbutanoyl)-1,2,3,6-tetrahydropyridin-4-yl]-N-(imidazo[1,2-a]pyridin-7-ylmethyl)furan-2-carboxamide]	0.79	392	77
O=C(NCc1ccn2ccnc2c1)c1ccc(C2=CCN(C(=O)CC3CC3)CC2)o1 [Example 750, 5-[1-(cyclopropylacetyl)-1,2,3,6-tetrahydropyridin-4-yl]-N-(imidazo[1,2-a]pyridin-7-ylmethyl)furan-2-carboxamide]	1.54	1530	794
CC(C)CS(=O)(=O)N1CCC(c2ncc(C(=O)NCc3ccn4ccnc4c3)s2)C1 (stereo not drawn) [Example 751, N-(imidazo[1,2-a]pyridin-7-ylmethyl)-2-{1-[(2-methylpropyl)sulfonyl]pyrrolidin-3-yl}-1,3-thiazole-5-carboxamide]	1	1240	755
O=C(NCc1ccn2ccnc2c1)c1cnc(C2CCN(S(=O)(=O)c3ccccc3)C2)s1 (stereo not drawn) [Example 752, N-(imidazo[1,2-a]pyridin-7-ylmethyl)-2-[1-(phenylsulfonyl)pyrrolidin-3-yl]-1,3-thiazole-5-carboxamide]	0.77	5190	6660
CC(C)CS(=O)(=O)N1CC=C(c2ccc(C(=O)NCc3ccn4ccnc4c3)o2)CC1 [Example 753, N-(imidazo[1,2-a]pyridin-7-ylmethyl)-5-{1-[(2-methylpropyl)sulfonyl]-1,2,3,6-tetrahydropyridin-4-yl}furan-2-carboxamide]	0.783	403	74.6
CC(C)Cn1cc(-c2ccc(C(=O)NCc3cn4ccnc4cn3)s2)cn1 [Example 754, N-(imidazo[1,2-a]pyrazin-6-ylmethyl)-5-[1-(2-methylpropyl)-1H-pyrazol-4-yl]thiophene-2-carboxamide]	0.51	4.92	1.25
CC1(Cn2cc(-c3ccc(C(=O)NCc4ccn5ccnc5c4)s3)cn2)CCN(C(=O)OC(C)(C)C)CC1 [Example 755, tert-butyl 4-[(4-{5-[(imidazo[1,2-a]pyridin-7-ylmethyl)carbamoyl]thiophen-2-yl]-1H-pyrazol-1-yl)methyl}-4-methylpiperidine-1-carboxylate]	0.57	13	2.49
O=C(NCc1ccn2ccnc2c1)c1ccc(C2CCN(C(=O)CC3CC3)C2)s1 (stereo not drawn) [Example 756, 5-[1-(cyclopropylacetyl)pyrrolidin-3-yl]-N-(imidazo[1,2-a]pyridin-7-ylmethyl)thiophene-2-carboxamide]	0.609	123	18.9
O=C(NCc1ccn2ccnc2c1)c1ccc(C2CCN(C(=O)c3ccccc3Cl)C2)s1 (stereo not drawn) [Example 757, 5-[1-(2-chlorobenzoyl)pyrrolidin-3-yl]-N-(imidazo[1,2-a]pyridin-7-ylmethyl)thiophene-2-carboxamide]	0.705	15.6	0.435
O=C(NCc1ccn2ccnc2c1)c1ccc(C2CCN(C(=O)Cc3ccc(F)cc3)C2)s1 (stereo not drawn) [Example 758, 5-{1-[(4-fluorophenyl)acetyl]pyrrolidin-3-yl}-N-(imidazo[1,2-a]pyridin-7-ylmethyl)thiophene-2-carboxamide]	0.61	132	23.2
COc1cccc(C(=O)N2CCC(c3ccc(C(=O)NCc4ccn5ccnc5c4)s3)C2)c1 (stereo not drawn) [Example 759, N-(imidazo[1,2-a]pyridin-7-ylmethyl)-5-[1-(3-methoxybenzoyl)pyrrolidin-3-yl]thiophene-2-carboxamide]	0.799	28.5	1.65
COc1ccccc1C(=O)N1CCC(c2ccc(C(=O)NCc3ccn4ccnc4c3)s2)C1 (stereo not drawn) [Example 760, N-(imidazo[1,2-a]pyridin-7-ylmethyl)-5-[1-(2-methoxybenzoyl)pyrrolidin-3-yl]thiophene-2-carboxamide]	0.71	28.9	1.19
O=C(NCc1ccn2ccnc2c1)c1ccc(C2CCN(C(=O)Cc3cccc(F)c3)C2)s1 (stereo not drawn) [Example 761, 5-{1-[(3-fluorophenyl)acetyl]pyrrolidin-3-yl}-N-(imidazo[1,2-a]pyridin-7-ylmethyl)thiophene-2-carboxamide]	0.394	94.4	27.7
O=C(NCc1ccn2ccnc2c1)c1ccc(C2CCN(C(=O)c3cccc(F)c3)C2)s1 (stereo not drawn) [Example 762, 5-[1-(3-fluorobenzoyl)pyrrolidin-3-yl]-N-(imidazo[1,2-a]pyridin-7-ylmethyl)thiophene-2-carboxamide]	0.506	30.1	1.12
O=C(NCc1ccn2ccnc2c1)c1ccc(C2CCN(C(=O)c3ccc(F)cc3)C2)s1 (stereo not drawn) [Example 763, 5-[1-(4-fluorobenzoyl)pyrrolidin-3-yl]-N-(imidazo[1,2-a]pyridin-7-ylmethyl)thiophene-2-carboxamide]	0.478	48.5	2.31
O=C(NCc1ccn2ccnc2c1)c1ccc(C2CCN(C(=O)Cc3cc(F)cc(F)c3)C2)s1 (stereo not drawn) [Example 764, 5-{1[(3,5-difluorophenyl)acetyl]pyrrolidin-3-yl}-N-(imidazo[1,2-a]pyridin-7-ylmethyl)thiophene-2-carboxamide]	0.465	135	68.7
O=C(NCc1ccn2ccnc2c1)c1ccc(C2CCN(C(=O)Cc3ccccc3F)C2)s1 (stereo not drawn) [Example 765, 5-{1-[(2-fluorophenyl)acetyl]pyrrolidin-3-yl}-N-(imidazo[1,2-a]pyridin-7-ylmethyl)thiophene-2-carboxamide]	0.782	36.5	2.91
N#Cc1ccc(C(=O)N2CCC(c3ccc(C(=O)NCc4ccn5ccnc5c4)s3)C2)cc1 (stereo not drawn) [Example 766, 5-[1-(4-cyanobenzoyl)pyrrolidin-3-yl]-N-(imidazo[1,2-a]pyridin-7-ylmethyl)thiophene-2-carboxamide]	0.581	61.5	6.36
